Assay results reported in ChEMBL document CHEMBL1201862, “PubChem BioAssay data set” (2004).
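The compound was tested at five concentrations on cells cultured in 96-well plates, with a 48-hour exposure period. GI50 marks 50% less growth.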 The source made the active and inactive calls. Rule as the data show it: active = GI50 up to about 1.1 µM and inactive = higher.

Columns and labels:
Assay in all cases: NCI anticancer screen, dose series, 48 h
[1] = test system: OVCAR-5
[2] = test system: NCI-H460
[3] = test system: SW-620
[4] = test system: MCF7
[5] = test system: UACC-257
[6] = test system: DU-145
[7] = test system: MDA-MB-435
[8] = test system: SK-MEL-2
[9] = test system: ACHN
[10] = test system: NCI-H522
[11] = test system: IGROV-1
[12] = test system: 786-0
[13] = test system: Malme-3M
[14] = test system: SNB-19
[15] = test system: UO-31
[16] = test system: HCT-116
[17] = test system: HOP-62
[18] = test system: COLO 205
[19] = test system: KM12
[20] = test system: RPMI-8226

SMILES | GI50 [1] | GI50 [2] | GI50 [3] | GI50 [4] | GI50 [5] | GI50 [6] | GI50 [7] | GI50 [8] | GI50 [9] | GI50 [10] | GI50 [11] | GI50 [12] | GI50 [13] | GI50 [14] | GI50 [15] | GI50 [16] | GI50 [17] | GI50 [18] | GI50 [19] | GI50 [20]
OC(c1ccc(F)cc1)C(F)(F)c1nc(-c2ccccc2)no1 (stereo not drawn) | 18.1 µM (inactive) | 0.0632 µM (active) | 19.3 µM (inactive) | 23.7 µM (inactive) | 19.6 µM (inactive) | 21.2 µM (inactive) | 19.4 µM (inactive) | 18.9 µM (inactive) | 27.2 µM (inactive) | 2.44 µM (inactive) | > 100 µM (inactive) | 20.1 µM (inactive) | 13.9 µM (inactive) | 36.4 µM (inactive) | 19 µM (inactive) | 19.1 µM (inactive) | – | – | – | –
COc1ccc2nc3cc(Cl)ccc3c(NCCCN3CCN(CCCNc4ccc5nnn6c7ccccc7c(=O)c4c56)CC3)c2c1 | > 21.2 µM (inactive) | 0.0995 µM (active) | 0.0458 µM (active) | 0.225 µM (active) | 2.51 µM (inactive) | > 25 µM (inactive) | 3.25 µM (inactive) | > 25 µM (inactive) | – | 0.391 µM (active) | 0.309 µM (active) | 0.646 µM (active) | – | > 25 µM (inactive) | > 7.5 µM (inactive) | 0.0191 µM (active) | > 25 µM (inactive) | 0.923 µM (active) | 0.277 µM (active) | –
C#CCCCC(=O)N(C(=O)C[S+]([O-])CC)c1ccccc1 (stereo not drawn) | > 100 µM (inactive) | > 100 µM (inactive) | > 100 µM (inactive) | > 100 µM (inactive) | > 100 µM (inactive) | > 100 µM (inactive) | > 100 µM (inactive) | > 100 µM (inactive) | > 100 µM (inactive) | > 100 µM (inactive) | > 100 µM (inactive) | > 100 µM (inactive) | > 100 µM (inactive) | > 100 µM (inactive) | > 100 µM (inactive) | > 100 µM (inactive) | > 100 µM (inactive) | > 100 µM (inactive) | > 100 µM (inactive) | –
CC(C)(C)OC[C@H](O)CC#N | > 100 µM (inactive) | > 100 µM (inactive) | > 100 µM (inactive) | > 100 µM (inactive) | > 100 µM (inactive) | > 100 µM (inactive) | > 100 µM (inactive) | > 100 µM (inactive) | > 100 µM (inactive) | – | – | > 100 µM (inactive) | > 100 µM (inactive) | > 100 µM (inactive) | > 100 µM (inactive) | > 100 µM (inactive) | > 100 µM (inactive) | > 100 µM (inactive) | > 100 µM (inactive) | > 100 µM (inactive)
CN(C)c1ccc(/C=N\NC(=O)c2ccccc2Nc2ccccc2C(=O)N/N=C/c2ccc(N(C)C)cc2)cc1 | 28.5 µM (inactive) | > 100 µM (inactive) | > 100 µM (inactive) | > 100 µM (inactive) | > 100 µM (inactive) | > 100 µM (inactive) | > 100 µM (inactive) | > 100 µM (inactive) | > 100 µM (inactive) | – | > 100 µM (inactive) | > 100 µM (inactive) | 38.5 µM (inactive) | > 100 µM (inactive) | > 100 µM (inactive) | > 100 µM (inactive) | > 100 µM (inactive) | 97.5 µM (inactive) | > 100 µM (inactive) | > 100 µM (inactive)
Oc1ccc2c(c1)-c1c(c3cc(O)ccc3n1CCN1CCOCC1)CC2 | 34.8 µM (inactive) | – | 23 µM (inactive) | 18.7 µM (inactive) | 36.6 µM (inactive) | 28.4 µM (inactive) | 17.8 µM (inactive) | 17.6 µM (inactive) | 30.5 µM (inactive) | 17.4 µM (inactive) | 24.2 µM (inactive) | 21.9 µM (inactive) | – | 29 µM (inactive) | 17.5 µM (inactive) | 19.1 µM (inactive) | 19.5 µM (inactive) | 17.4 µM (inactive) | 32.7 µM (inactive) | 24.7 µM (inactive)
Cc1c(/N=N/c2ccc(Cl)cc2)c(-c2ccccc2)n(C2OC(CO)C(O)C(O)C2O)c(=S)c1C#N (stereo not drawn) | 19.2 µM (inactive) | 18.8 µM (inactive) | 17.6 µM (inactive) | 15.2 µM (inactive) | 22.1 µM (inactive) | 19 µM (inactive) | 10.5 µM (inactive) | 18.8 µM (inactive) | 16 µM (inactive) | – | 15.1 µM (inactive) | 20.2 µM (inactive) | 25.5 µM (inactive) | 12.3 µM (inactive) | 19.8 µM (inactive) | 14.3 µM (inactive) | 19.1 µM (inactive) | 21.2 µM (inactive) | 16.8 µM (inactive) | 25.2 µM (inactive)
CCOP(=O)(OCC)C(NC(=O)C(C(F)(F)F)C(F)(F)F)c1ccccc1 (stereo not drawn) | > 100 µM (inactive) | > 100 µM (inactive) | > 100 µM (inactive) | 97.9 µM (inactive) | > 100 µM (inactive) | > 100 µM (inactive) | > 100 µM (inactive) | > 100 µM (inactive) | > 100 µM (inactive) | – | > 100 µM (inactive) | > 100 µM (inactive) | > 100 µM (inactive) | > 100 µM (inactive) | 49.9 µM (inactive) | > 100 µM (inactive) | > 100 µM (inactive) | > 100 µM (inactive) | > 100 µM (inactive) | 21.7 µM (inactive)
O=C(Nc1ccccc1)Nn1c(-c2cccs2)nc2ccc(I)cc2c1=O | 27.7 µM (inactive) | 26.2 µM (inactive) | 39.4 µM (inactive) | 29.1 µM (inactive) | 17.2 µM (inactive) | 24.3 µM (inactive) | 20.1 µM (inactive) | – | 27.5 µM (inactive) | 14.3 µM (inactive) | 19.7 µM (inactive) | 61.7 µM (inactive) | – | 42.2 µM (inactive) | 21.2 µM (inactive) | 31.4 µM (inactive) | 51.4 µM (inactive) | 21.4 µM (inactive) | 31.3 µM (inactive) | 19.1 µM (inactive)
CC(C)(C)OC(=O)NCC(=O)N1CCN(C(=O)CNC(=O)OC(C)(C)C)CC1 | > 100 µM (inactive) | – | > 100 µM (inactive) | > 100 µM (inactive) | > 100 µM (inactive) | > 100 µM (inactive) | > 100 µM (inactive) | > 100 µM (inactive) | > 100 µM (inactive) | 2.55 µM (inactive) | > 100 µM (inactive) | > 100 µM (inactive) | – | > 100 µM (inactive) | > 100 µM (inactive) | > 100 µM (inactive) | > 100 µM (inactive) | > 100 µM (inactive) | > 100 µM (inactive) | > 100 µM (inactive)
O=C(/C=C/c1ccc(Cl)c(Cl)c1)Oc1ccc(/C=C2\CCCCC2=O)cc1 | > 100 µM (inactive) | > 100 µM (inactive) | > 100 µM (inactive) | > 100 µM (inactive) | > 100 µM (inactive) | > 100 µM (inactive) | 78.2 µM (inactive) | > 100 µM (inactive) | > 100 µM (inactive) | 91.8 µM (inactive) | > 100 µM (inactive) | > 100 µM (inactive) | – | > 100 µM (inactive) | > 100 µM (inactive) | > 100 µM (inactive) | > 100 µM (inactive) | > 100 µM (inactive) | > 100 µM (inactive) | 67.6 µM (inactive)
COc1ccc2nc3ccc(OC)cc3c(S(=O)(=O)Cc3ccc([N+](=O)[O-])cc3)c2c1 | > 100 µM (inactive) | > 100 µM (inactive) | > 100 µM (inactive) | > 100 µM (inactive) | > 100 µM (inactive) | > 100 µM (inactive) | > 100 µM (inactive) | > 100 µM (inactive) | > 100 µM (inactive) | > 100 µM (inactive) | > 100 µM (inactive) | 66.4 µM (inactive) | > 100 µM (inactive) | > 100 µM (inactive) | > 100 µM (inactive) | > 100 µM (inactive) | 93.5 µM (inactive) | > 100 µM (inactive) | > 100 µM (inactive) | –
C#CCOC(=O)c1ccc(OC(C)=O)cc1 | > 100 µM (inactive) | > 100 µM (inactive) | > 100 µM (inactive) | > 100 µM (inactive) | > 100 µM (inactive) | > 100 µM (inactive) | > 100 µM (inactive) | > 100 µM (inactive) | > 100 µM (inactive) | > 100 µM (inactive) | > 100 µM (inactive) | > 100 µM (inactive) | – | > 100 µM (inactive) | > 100 µM (inactive) | > 100 µM (inactive) | > 100 µM (inactive) | > 100 µM (inactive) | > 100 µM (inactive) | > 100 µM (inactive)
COc1ccc2cc(C(=O)NCCc3ccccc3)ccc2c1OC | > 100 µM (inactive) | > 100 µM (inactive) | > 100 µM (inactive) | > 100 µM (inactive) | > 100 µM (inactive) | > 100 µM (inactive) | > 100 µM (inactive) | 71.9 µM (inactive) | > 100 µM (inactive) | – | > 100 µM (inactive) | 39.4 µM (inactive) | > 100 µM (inactive) | 68.1 µM (inactive) | – | 96.6 µM (inactive) | 32.1 µM (inactive) | > 100 µM (inactive) | – | > 100 µM (inactive)
CCc1n[nH]c(=O)[nH]1 | > 100 µM (inactive) | > 100 µM (inactive) | – | > 100 µM (inactive) | > 100 µM (inactive) | > 100 µM (inactive) | > 100 µM (inactive) | > 100 µM (inactive) | > 100 µM (inactive) | > 100 µM (inactive) | > 100 µM (inactive) | > 100 µM (inactive) | > 100 µM (inactive) | > 100 µM (inactive) | > 100 µM (inactive) | > 100 µM (inactive) | > 100 µM (inactive) | > 100 µM (inactive) | > 100 µM (inactive) | –
